Test results taken from ChEMBL document CHEMBL1201862, “PubChem BioAssay data set” (2004).
Active and inactive are the calls of the source.

Experiments:
[1] = molecular target: Eukaryotic translation initiation factor 4H (Homo sapiens, UniProt Q15056); test: inhibitors of translation initiation factor eIF4H – SAR follow-up (AID 435011); assay type: functional
[2] = molecular target: Polyadenylate-binding protein 1 (Homo sapiens, UniProt P11940); test: PABP inhibition in translation initiation, SAR follow-up (AID 435018); assay type: functional
[3] = molecular target: DNA dC->dU-editing enzyme APOBEC-3A (Homo sapiens, UniProt P31941); test: A3A deaminase inhibition for selectivity – biochemical, dose response (AID 504722); assay type: functional
[4] = molecular target: DNA dC->dU-editing enzyme APOBEC-3G (Homo sapiens, UniProt Q9HC16); test: Dose Response confirmation of small molecule APOBEC3G DNA Deaminase Inhibitors via a fluorescence-based single-stranded DNA deaminase assay. [Related pubchem assays (depositor defined):AID493012, AID493028]; assay type: functional
[5] = molecular target: Cytochrome P450 2C19 (Homo sapiens, UniProt P33261); test: Cytochrome panel assay with activity outcomes. Panel member name: p450-cyp2c19 Compounds with AC50 equal or less than 10 uM are considered active; assay type: functional
[6] = molecular target: Cytochrome P450 3A4 (Homo sapiens, UniProt P08684);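 also: CYP3A4 tested as one member of a cytochrome P450 panel screen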
[7] = molecular target: T1, RNA-binding protein pos-1 (Caenorhabditis elegans, UniProt G5EF15); test: disruptors of C. elegans POS-1 RNA interaction – biochemical, fluorescence polarization, dose response (AID 1964);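 also: purified POS-1 fused to maltose binding protein made in E. coli; potency of compounds blocking POS-1 binding to fluorescent RNA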
T1 sequence (G5EF15 whole entry): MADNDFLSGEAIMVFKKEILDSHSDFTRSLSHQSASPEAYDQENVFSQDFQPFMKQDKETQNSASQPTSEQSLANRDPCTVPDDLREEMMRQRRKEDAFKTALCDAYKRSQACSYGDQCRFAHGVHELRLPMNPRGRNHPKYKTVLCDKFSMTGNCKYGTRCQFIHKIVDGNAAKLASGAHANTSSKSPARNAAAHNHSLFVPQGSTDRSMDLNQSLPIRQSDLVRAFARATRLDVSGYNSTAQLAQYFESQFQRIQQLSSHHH

[8] = molecular target: T2, Zinc finger protein mex-5 (Caenorhabditis elegans, UniProt Q9XUB2); test: potency of MEX-5 RNA-binding blockers – biochemical, C. elegans, fluorescence polarization, dose response (AID 1960)
T2 sequence (Q9XUB2 whole entry): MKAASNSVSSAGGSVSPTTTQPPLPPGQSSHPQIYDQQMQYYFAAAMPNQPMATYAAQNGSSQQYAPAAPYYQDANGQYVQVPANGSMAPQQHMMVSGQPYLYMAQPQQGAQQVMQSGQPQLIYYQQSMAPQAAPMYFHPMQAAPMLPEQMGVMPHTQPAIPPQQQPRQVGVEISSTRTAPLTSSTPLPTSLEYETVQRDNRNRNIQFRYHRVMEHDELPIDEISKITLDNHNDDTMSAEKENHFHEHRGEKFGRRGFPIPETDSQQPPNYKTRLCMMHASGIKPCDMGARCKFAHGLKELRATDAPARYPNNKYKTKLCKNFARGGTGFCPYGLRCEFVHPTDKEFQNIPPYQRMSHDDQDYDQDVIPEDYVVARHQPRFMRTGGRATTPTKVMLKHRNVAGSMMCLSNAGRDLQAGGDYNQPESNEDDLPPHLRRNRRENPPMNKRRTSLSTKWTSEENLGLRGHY

[9] = molecular target: T3, E3 ubiquitin-protein ligase XIAP (Homo sapiens, UniProt P98170); test: Counter Screen using XIAP-Bir3 for Chemical Antagonists of Bir1/2 domains of IAP-family anti-apoptotic proteins. [Related pubchem assays (depositor defined):AID1018, AID1449, AID1514, AID1638, AID1749, AID1750, AID488957, AID488963]
[10] = molecular target: T3, E3 ubiquitin-protein ligase XIAP; test: small molecules displacing peptide from XIAP – biochemical, IAP family, fluorescence polarization (AID 1018); assay type: functional
[11] = NIH-3T3 fibroblast cytotoxicity, dose response, cytotoxicity control, cell-based, fluorescence, Alamar Blue, secondary assay (AID 2327); assay type: functional;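 also: NIH-3T3 mouse fibroblasts cultured with fluconazole at 8 µg/mL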
[12] = tested on: HEK293; test: inhibition of NOD1-driven NF-kB reporter – cell-based, luminescence, uHTS, primary screen (AID 1578); assay type: functional; settings: Homo sapiens
[13] = tested on: HEK293; test: cells; assay type: functional, cell-based; settings: Homo sapiens
[14] = fluconazole-exposed Candida albicans growth modulators – fluorescence, retest, confirmation (AID 2467); assay type: functional, cell-based
[15] = tested on: HEK293; test: cells; assay type: functional, cell-based; settings: Homo sapiens; remark: listed apart in the source
[16] = molecular target: Nucleotide-binding oligomerization domain-containing protein 2 (Homo sapiens, UniProt Q9HC29); test: inhibition of NOD2-driven NF-kB reporter – cell-based, luminescence, uHTS, HEK293 (AID 1566); assay type: functional
[17] = tested on: HEK293; test: NOD2 signaling inhibitors in MDP-stimulated cells, cell-based, uHTS, luminescence (AID 2001); assay type: functional; settings: Homo sapiens
[18] = tested on: HEK293; test: cells; assay type: functional, cell-based; settings: Homo sapiens; remark: listed apart in the source
[19] = molecular target: T4, Serine/threonine-protein phosphatase (Candida dubliniensis (strain CD36 / CBS 7987 / NCPF 3949 / NRRLY-17841) (Yeast), UniProt B9W6M3); test: blockers of CaCl2-induced CDRE-lacZ signaling – S. cerevisiae, luminescence, secondary, dose response (AID 2388); assay type: functional, cell-based;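 also: yeast reporter cells carrying a calcineurin-responsive lacZ construct stimulated with calcium chloride; luminescent beta-galactosidase reporter signal in whole cells rather than isolated phosphatase activity; potency for inhibition where a drop in reporter signal means calcineurin blockade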
T4 sequence (B9W6M3 whole entry): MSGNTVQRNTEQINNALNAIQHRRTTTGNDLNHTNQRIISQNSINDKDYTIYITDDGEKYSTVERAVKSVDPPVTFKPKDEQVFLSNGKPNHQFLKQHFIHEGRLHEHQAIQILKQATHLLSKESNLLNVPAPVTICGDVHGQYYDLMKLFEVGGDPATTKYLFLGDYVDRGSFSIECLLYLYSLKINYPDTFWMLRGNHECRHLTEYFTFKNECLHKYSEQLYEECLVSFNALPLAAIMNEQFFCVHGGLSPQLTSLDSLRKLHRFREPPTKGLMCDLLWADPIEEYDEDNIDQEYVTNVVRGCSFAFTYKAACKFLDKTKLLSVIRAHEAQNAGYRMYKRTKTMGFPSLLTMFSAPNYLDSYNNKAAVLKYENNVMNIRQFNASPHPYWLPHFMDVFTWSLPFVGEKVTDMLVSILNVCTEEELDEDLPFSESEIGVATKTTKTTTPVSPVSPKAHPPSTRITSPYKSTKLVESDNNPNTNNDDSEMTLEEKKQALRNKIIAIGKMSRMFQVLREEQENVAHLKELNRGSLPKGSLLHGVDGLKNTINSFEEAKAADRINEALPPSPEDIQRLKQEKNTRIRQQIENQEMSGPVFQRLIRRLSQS

[20] = molecular target: Tumor necrosis factor (Homo sapiens, UniProt P01375); test: analog potency on TNFa NF-kB signaling – cell-based, revised, SAR follow-up (AID 2337); assay type: functional
[21] = molecular target: T5, Nucleotide-binding oligomerization domain-containing protein 1 (Homo sapiens, UniProt Q9Y239); test: blockers of NOD1 pathway activity – revised, SAR follow-up (AID 2333); assay type: functional
T5 sequence (Q9Y239 whole entry): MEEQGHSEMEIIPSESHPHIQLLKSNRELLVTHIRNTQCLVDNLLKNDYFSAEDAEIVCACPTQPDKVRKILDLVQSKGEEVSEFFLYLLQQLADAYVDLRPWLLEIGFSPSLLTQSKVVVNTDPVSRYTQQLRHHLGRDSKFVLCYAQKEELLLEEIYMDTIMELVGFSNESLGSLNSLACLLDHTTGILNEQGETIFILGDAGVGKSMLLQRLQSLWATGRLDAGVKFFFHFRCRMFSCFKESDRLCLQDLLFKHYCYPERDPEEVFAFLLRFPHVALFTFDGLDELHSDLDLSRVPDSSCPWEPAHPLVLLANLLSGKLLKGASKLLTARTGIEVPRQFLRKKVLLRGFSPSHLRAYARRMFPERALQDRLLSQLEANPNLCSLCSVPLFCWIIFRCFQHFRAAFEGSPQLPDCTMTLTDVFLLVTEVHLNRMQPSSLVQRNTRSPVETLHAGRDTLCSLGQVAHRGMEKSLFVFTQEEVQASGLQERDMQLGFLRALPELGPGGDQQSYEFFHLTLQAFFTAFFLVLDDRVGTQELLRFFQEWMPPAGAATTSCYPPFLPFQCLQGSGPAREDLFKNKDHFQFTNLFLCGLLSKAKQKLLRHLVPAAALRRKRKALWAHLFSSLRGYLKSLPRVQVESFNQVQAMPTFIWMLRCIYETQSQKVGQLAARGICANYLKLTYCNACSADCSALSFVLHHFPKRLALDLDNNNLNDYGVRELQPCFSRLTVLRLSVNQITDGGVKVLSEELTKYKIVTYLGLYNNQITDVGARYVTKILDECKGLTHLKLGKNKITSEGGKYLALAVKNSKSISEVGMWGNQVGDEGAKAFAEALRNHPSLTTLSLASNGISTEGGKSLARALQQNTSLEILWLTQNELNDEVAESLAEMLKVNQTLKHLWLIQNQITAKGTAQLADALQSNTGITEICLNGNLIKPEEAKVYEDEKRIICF

[22] = molecular target: ATP-dependent molecular chaperone HSP82 (Candida albicans (strain WO-1) (Yeast), UniProt C4YTQ8); test: steroid-induced GRE reporter decrease in yeast – S. cerevisiae, luminescence, Hsp90 inhibitor project, dose response (AID 2400); assay type: functional, cell-based;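 also: beta-galactosidase luminescence from glucocorticoid response element reporter as proxy for Hsp90 function; inhibitor potency where signal loss means Hsp90 inhibition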
[23] = reduction of Shn3 3'UTR-driven luciferase in osteoblasts – cell-based, Clone20 osteoblasts, firefly luciferase, cherry-picked, dose response (AID 624132); assay type: functional;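 also: firefly luciferase luminescence from reporter carrying the Shn3 3'UTR in osteoblasts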
[24] = loss of viability in HepG2 cells – cell-based, CellTiter-Glo, cherry-picked, cytotoxicity control for Shn3 inhibitor project, dose response (AID 624134); assay type: functional
[25] = non-specific 3'UTR reporter inhibition in Clone20-Shn3RL – cell-based, Renilla luciferase, cherry-picked, counter-screen for Shn3 inhibitor project, dose response (AID 624133); assay type: functional
[26] = tested on: HEK293; test: cells; settings: Homo sapiens
[27] = molecular target: T6, Corticotropin-releasing factor receptor 2/Corticotropin-releasing factor-binding protein (Homo sapiens, UniProt P24387+Q13324); test: activators of CRF receptor 2 with binding protein – uHTS hits, confirmation (AID 602473); assay type: functional; settings: read-out: EC50_Mean
T6 sequence (Q13324 whole entry): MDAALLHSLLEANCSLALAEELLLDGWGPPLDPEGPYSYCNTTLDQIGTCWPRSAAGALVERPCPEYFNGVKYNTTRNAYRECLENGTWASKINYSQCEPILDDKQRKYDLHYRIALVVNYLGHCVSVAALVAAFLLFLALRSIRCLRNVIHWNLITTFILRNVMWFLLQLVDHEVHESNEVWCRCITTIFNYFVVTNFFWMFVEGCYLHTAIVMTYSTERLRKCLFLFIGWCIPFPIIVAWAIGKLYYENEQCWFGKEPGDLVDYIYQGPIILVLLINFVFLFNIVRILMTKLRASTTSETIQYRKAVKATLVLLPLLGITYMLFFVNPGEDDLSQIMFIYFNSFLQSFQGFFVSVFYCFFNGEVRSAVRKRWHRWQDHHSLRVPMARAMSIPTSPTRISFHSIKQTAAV
T6 sequence (P24387 whole entry): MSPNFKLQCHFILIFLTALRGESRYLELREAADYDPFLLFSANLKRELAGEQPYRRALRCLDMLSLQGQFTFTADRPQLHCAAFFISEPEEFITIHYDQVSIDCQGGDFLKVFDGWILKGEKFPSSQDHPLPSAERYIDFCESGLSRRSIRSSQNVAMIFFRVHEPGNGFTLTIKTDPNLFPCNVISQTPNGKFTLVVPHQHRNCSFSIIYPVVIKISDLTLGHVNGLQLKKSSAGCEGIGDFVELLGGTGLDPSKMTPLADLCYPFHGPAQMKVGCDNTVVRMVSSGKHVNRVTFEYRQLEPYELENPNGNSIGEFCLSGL

T3 sequence (P98170 whole entry): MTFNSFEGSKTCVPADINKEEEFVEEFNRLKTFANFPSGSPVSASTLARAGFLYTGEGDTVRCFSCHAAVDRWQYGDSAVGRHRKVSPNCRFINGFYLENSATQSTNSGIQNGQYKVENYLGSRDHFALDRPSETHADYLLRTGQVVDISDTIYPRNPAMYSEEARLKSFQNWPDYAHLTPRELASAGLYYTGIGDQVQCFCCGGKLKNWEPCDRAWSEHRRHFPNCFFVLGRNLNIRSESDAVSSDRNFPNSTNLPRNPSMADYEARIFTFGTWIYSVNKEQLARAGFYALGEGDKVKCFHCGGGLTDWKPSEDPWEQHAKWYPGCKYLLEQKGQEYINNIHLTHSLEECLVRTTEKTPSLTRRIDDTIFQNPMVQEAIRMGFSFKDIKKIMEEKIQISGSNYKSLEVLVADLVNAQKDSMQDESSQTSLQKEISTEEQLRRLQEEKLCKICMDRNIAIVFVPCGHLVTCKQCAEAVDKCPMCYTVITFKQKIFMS
DNA dC->dU-editing enzyme APOBEC-3G, sequence (Q9HC16 whole entry): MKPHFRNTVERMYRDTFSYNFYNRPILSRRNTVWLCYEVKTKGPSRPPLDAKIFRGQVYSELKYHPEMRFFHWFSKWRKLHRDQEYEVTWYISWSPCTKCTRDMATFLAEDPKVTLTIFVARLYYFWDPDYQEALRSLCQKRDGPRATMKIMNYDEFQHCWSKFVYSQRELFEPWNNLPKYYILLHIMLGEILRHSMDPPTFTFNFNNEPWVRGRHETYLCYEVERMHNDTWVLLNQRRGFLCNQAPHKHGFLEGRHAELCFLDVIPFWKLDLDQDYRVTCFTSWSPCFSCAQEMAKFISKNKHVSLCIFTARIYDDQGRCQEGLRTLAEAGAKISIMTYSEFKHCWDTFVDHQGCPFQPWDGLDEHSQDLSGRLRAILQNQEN
DNA dC->dU-editing enzyme APOBEC-3A, sequence (P31941 whole entry): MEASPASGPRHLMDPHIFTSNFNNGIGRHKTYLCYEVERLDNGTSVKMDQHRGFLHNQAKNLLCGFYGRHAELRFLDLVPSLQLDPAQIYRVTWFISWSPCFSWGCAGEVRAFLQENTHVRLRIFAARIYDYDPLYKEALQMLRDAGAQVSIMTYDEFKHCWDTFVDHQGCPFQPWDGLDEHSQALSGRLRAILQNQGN
Polyadenylate-binding protein 1, sequence (P11940 whole entry): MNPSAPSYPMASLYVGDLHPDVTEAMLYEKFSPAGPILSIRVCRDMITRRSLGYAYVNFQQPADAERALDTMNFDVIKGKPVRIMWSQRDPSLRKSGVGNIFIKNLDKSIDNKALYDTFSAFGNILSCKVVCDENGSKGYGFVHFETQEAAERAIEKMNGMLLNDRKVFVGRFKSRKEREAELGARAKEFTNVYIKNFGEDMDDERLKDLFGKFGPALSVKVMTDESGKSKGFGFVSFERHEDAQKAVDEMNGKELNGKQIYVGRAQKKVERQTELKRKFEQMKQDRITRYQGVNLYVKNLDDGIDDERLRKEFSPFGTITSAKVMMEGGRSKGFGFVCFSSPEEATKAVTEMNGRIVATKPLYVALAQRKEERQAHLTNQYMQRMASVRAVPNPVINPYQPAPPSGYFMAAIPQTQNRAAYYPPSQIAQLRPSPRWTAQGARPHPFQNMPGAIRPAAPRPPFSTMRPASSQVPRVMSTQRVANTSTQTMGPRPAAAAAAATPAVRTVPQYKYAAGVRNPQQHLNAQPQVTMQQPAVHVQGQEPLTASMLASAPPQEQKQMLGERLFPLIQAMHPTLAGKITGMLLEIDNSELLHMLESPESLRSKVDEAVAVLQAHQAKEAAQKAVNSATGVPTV
Cytochrome P450 3A4, sequence (P08684 whole entry, the tested form may be a part): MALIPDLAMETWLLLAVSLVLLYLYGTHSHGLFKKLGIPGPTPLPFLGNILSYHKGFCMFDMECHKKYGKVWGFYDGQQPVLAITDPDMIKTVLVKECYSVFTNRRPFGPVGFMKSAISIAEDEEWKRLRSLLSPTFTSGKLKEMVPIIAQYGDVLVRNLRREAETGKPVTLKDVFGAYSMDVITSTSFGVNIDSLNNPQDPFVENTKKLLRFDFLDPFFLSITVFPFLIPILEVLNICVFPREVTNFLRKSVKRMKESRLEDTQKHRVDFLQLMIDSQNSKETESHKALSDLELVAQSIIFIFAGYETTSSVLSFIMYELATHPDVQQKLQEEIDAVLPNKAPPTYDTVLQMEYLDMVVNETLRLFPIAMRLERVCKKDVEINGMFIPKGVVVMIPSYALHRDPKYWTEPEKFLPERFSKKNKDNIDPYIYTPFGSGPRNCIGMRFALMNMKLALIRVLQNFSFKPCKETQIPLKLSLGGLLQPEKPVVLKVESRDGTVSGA
ATP-dependent molecular chaperone HSP82, sequence (C4YTQ8 whole entry): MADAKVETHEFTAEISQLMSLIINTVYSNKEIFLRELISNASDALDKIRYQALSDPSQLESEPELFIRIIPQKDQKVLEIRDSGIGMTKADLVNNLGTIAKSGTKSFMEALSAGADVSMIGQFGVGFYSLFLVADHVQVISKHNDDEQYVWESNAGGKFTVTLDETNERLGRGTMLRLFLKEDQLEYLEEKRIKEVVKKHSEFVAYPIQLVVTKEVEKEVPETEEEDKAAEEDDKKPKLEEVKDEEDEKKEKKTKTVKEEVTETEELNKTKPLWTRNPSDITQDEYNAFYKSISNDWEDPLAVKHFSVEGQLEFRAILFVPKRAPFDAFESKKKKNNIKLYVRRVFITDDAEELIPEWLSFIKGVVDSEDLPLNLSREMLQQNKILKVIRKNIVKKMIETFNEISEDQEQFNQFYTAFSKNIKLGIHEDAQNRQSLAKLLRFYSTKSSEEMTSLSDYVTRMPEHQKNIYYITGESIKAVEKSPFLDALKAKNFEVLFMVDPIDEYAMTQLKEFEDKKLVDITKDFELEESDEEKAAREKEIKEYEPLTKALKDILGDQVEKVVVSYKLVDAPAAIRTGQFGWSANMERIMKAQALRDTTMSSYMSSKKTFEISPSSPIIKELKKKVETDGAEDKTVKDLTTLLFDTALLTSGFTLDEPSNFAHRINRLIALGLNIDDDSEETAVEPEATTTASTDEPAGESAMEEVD
Cytochrome P450 2C19, sequence (P33261 whole entry): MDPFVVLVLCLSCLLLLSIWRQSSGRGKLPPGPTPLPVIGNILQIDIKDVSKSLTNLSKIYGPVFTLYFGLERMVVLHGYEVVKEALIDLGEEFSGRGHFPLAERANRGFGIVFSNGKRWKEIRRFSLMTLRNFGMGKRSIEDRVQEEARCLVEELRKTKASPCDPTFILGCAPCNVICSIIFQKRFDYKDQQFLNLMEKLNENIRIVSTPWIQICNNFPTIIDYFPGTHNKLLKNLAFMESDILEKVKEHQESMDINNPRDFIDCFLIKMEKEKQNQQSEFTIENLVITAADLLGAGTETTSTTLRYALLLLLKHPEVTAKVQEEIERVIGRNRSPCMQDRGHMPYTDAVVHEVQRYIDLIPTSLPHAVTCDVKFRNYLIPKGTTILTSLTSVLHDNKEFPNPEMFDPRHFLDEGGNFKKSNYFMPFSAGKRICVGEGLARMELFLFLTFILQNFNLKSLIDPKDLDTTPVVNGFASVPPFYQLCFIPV
Nucleotide-binding oligomerization domain-containing protein 2, sequence (Q9HC29 whole entry, the tested form may be a part): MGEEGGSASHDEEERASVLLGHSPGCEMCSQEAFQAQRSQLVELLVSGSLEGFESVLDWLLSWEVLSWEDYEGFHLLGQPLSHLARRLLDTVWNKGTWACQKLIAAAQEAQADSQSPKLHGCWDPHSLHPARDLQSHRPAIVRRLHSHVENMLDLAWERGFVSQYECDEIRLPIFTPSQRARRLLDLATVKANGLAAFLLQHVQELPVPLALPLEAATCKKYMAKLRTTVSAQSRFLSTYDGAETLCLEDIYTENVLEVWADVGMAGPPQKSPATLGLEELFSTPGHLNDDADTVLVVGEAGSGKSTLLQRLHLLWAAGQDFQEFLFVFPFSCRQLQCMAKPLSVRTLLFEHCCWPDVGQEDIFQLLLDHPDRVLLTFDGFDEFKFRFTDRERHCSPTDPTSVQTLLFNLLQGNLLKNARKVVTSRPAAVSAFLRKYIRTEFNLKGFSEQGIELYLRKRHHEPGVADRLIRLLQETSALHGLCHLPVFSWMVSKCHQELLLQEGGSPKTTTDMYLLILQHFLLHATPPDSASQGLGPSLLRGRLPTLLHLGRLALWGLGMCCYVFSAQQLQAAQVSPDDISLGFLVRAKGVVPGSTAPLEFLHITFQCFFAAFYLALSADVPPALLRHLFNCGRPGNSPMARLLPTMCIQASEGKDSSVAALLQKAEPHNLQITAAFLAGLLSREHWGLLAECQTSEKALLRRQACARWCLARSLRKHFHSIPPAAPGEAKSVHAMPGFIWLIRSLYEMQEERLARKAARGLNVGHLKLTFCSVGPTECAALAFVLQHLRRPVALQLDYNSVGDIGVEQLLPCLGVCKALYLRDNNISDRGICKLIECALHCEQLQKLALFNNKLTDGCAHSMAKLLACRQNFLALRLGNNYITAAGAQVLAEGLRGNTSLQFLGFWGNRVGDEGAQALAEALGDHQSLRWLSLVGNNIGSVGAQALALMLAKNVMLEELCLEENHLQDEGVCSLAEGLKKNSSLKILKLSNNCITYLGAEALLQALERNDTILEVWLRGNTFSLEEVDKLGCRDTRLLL
Tumor necrosis factor, sequence (P01375 whole entry, the tested form may be a part): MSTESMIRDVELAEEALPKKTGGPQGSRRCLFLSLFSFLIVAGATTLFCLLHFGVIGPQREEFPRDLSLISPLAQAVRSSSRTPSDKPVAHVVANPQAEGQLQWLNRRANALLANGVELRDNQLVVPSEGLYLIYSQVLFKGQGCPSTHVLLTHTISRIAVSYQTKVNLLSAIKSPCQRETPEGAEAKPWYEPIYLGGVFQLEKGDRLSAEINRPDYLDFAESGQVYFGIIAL

COc1ccccc1N=C1SC(C(=O)Nc2ccccc2)CC(=O)N1C (stereo unspecified)
IC50 [1]: > 100 µM (inactive) | IC50 [2]: > 100 µM (inactive)

C=CCn1c(S)nnc1-c1sc2nc(C)cc(C)c2c1N
IC50 [3]: > 100 µM (inactive) | IC50 [4]: 3.28 µM (active)

O=C(COc1ccc(C=NNC(=O)c2ccccc2O)cc1)Nc1ccccc1
IC50 [1]: > 100 µM (inactive) | IC50 [2]: > 100 µM (inactive)

Sc1nc(-c2ccccc2)cn1/N=C/c1ccncc1
IC50 [3]: > 100 µM (inactive) | IC50 [4]: 2.93 µM (active)

Cc1nnc(S)n1/N=C/c1ccc(Br)o1
IC50 [3]: > 100 µM (inactive) | IC50 [4]: 6.93 µM (active) | AC50 [5]: inconclusive | AC50 [6]: 25.1 µM (inconclusive)

CCCCn1c(S)nnc1-c1ccc([N+](=O)[O-])cc1
IC50 [3]: > 100 µM (inactive) | IC50 [4]: 3.5 µM (active)

CC(C)(C)c1ccc(C(=O)Nc2cccc3ncccc23)cc1
EC50 [7]: 8.65 µM (active) | EC50 [8]: 5.39 µM (active) | IC50 [1]: 1.14 µM (active) | IC50 [2]: 1.32 µM (active)

OCC1(CCc2ccccc2)CCN(Cc2ccc(OC(F)F)cc2)CC1
IC50 [9]: > 100 µM (inactive) | IC50 [10]: > 100 µM (not active)

O=C(c1ccc(Cn2c(=S)[nH]c3ccccc3c2=O)cc1)N1CCN(c2ccccn2)CC1
EC50 [11]: 12.4 µM (inconclusive) | EC50 [12]: 9 µM (active) | IC50 [13]: 6.05 µM (active) | EC50 [14]: 0.549 µM (active) | IC50 [15]: > 20 µM (inactive) | EC50 [16]: 5.49 µM (active) | IC50 [17]: 7.1 µM (active) | IC50 [18]: 13.9 µM (active) | EC50 [19]: > 180 µM (inactive) | IC50 [20]: 7.61 µM (active) | IC50 [21]: 5.3 µM (active) | EC50 [22]: > 150 µM (inactive) | AC50 [23]: 6.34 µM (active) | AC50 [24]: 59.2 µM (active) | AC50 [25]: 31.4 µM (active) | IC50 [26]: 12.6 µM (active)

CCn1c(CCNC(=O)c2ccc(OC)cc2)nnc1SCc1ccc(Cl)c(Cl)c1
IC50 [9]: > 100 µM (inactive) | IC50 [10]: > 100 µM (not active) | EC50 [27]: > 53 µM (inactive)

CCOC(=O)N/N=C/c1ccc(Oc2ccccc2)cc1
IC50 [9]: > 100 µM (inactive) | IC50 [10]: > 100 µM (not active)
